Test results taken from ChEMBL document CHEMBL1135808, “A new type of mixed anhydride and its applications to the synthesis of 7-substituted 8-chloro-5,5-dioxoimidazo[1,2-b][1,4,2]benzodithiazines with in vitro antitumor activity” (2002).

Assays:
[1] = system: T47D; experiment: In vitro total growth inhibition against breast cancer […] cell lines was reported.; type: functional; settings: Homo sapiens, read-out: Log TGI (converted)
[2] = system: MDA-MB-231; experiment: In vitro growth inhibition against breast cancer MDA-MB-231/ATCC cell line was reported.; type: functional; settings: Homo sapiens
[3] = system: NCI/ADR-RES; experiment: In vitro growth inhibition against breast cancer NCI/ADR-RES cell line was reported.; type: functional; settings: Homo sapiens
[4] = system: T47D; experiment: In vitro growth inhibition against breast cancer […] cell line was reported.; type: functional; settings: Homo sapiens
[5] = system: COLO 205; experiment: Log of molar concentration leading to 50% cell death against colon cancer COLO 205 cell line was reported; type: functional; settings: Homo sapiens, read-out: Log LC50 (the source's name) (converted)
[6] = system: COLO 205; experiment: In vitro total growth inhibition against colon cancer COLO 205 cell lines was reported.; type: functional; settings: Homo sapiens, read-out: Log TGI (converted)
[7] = system: HCC 2998; experiment: In vitro growth inhibition against colon cancer HCC2998 cell line was reported.; type: functional; settings: Homo sapiens
[8] = system: HCC 2998; experiment: In vitro total growth inhibition against colon cancer HCC2998 cell lines was reported.; type: functional; settings: Homo sapiens, read-out: Log TGI (converted)
[9] = system: HCT-116; experiment: Log of molar concentration leading to 50% cell death against colon cancer HCT116 cell line was reported; type: functional; settings: Homo sapiens, read-out: Log LC50 (the source's name) (converted)
[10] = system: HCT-116; experiment: In vitro total growth inhibition against colon cancer HCT116 cell lines was reported.; type: functional; settings: Homo sapiens, read-out: Log TGI (converted)
[11] = system: SF-295; experiment: In vitro growth inhibition against CNS cancer SF-295 cell line was reported.; type: functional; settings: Homo sapiens
[12] = system: SF-539; experiment: Log of molar concentration leading to 50% cell death against CNS cancer SF-539 cell line was reported; type: functional; settings: Homo sapiens, read-out: Log LC50 (the source's name) (converted)
[13] = system: SF-539; experiment: In vitro total growth inhibition against CNS cancer SF-539 cell lines was reported.; type: functional; settings: Homo sapiens, read-out: Log TGI (converted)
[14] = system: U-251; experiment: In vitro growth inhibition against CNS cancer U251 cell line was reported.; type: functional; settings: Homo sapiens
[15] = system: U-251; experiment: In vitro total growth inhibition against CNS cancer U251 cell lines was reported.; type: functional; settings: Homo sapiens, read-out: Log TGI (converted)
[16] = system: Tumor Cell line; experiment: Log of molar concentration leading to 50% cell death was reported; type: functional; settings: Homo sapiens, read-out: Log LC50 (the source's name) (converted)
[17] = system: K562; experiment: In vitro growth inhibition against leukemia K-562 cell line was reported.; type: functional; settings: Homo sapiens
[18] = system: K562; experiment: In vitro total growth inhibition against leukemia K-562 cell lines was reported.; type: functional; settings: Homo sapiens, read-out: Log TGI (converted)
[19] = system: RPMI-8226; experiment: In vitro total growth inhibition against leukemia […] cell lines was reported.; type: functional; settings: Homo sapiens, read-out: Log TGI (converted)
[20] = system: MOLT-4; experiment: In vitro growth inhibition against leukemia MOLT-4 cell line was reported.; type: functional; settings: Homo sapiens
[21] = system: M14; experiment: In vitro growth inhibition against melanoma M14 cell line was reported.; type: functional; settings: Homo sapiens
[22] = system: Malme-3M; experiment: In vitro growth inhibition against melanoma MALME 3M cell line was reported.; type: functional; settings: Homo sapiens
[23] = system: UACC-62; experiment: In vitro growth inhibition against melanoma UACC-62 cell line was reported.; type: functional; settings: Homo sapiens
[24] = system: EKVX; experiment: Log of molar concentration leading to 50% cell death against non-small-cell lung cancer EKVX cell line was reported; type: functional; settings: Homo sapiens, read-out: Log LC50 (the source's name) (converted)
[25] = system: HOP-62; experiment: Log of molar concentration leading to 50% cell death against non-small-cell lung cancer HOP-62 cell line was reported; type: functional; settings: Homo sapiens, read-out: Log LC50 (the source's name) (converted)
[26] = system: HOP-62; experiment: In vitro total growth inhibition against non-small-cell lung cancer HOP-62 cell lines was reported.; type: functional; settings: Homo sapiens, read-out: Log TGI (converted)
[27] = system: NCI-H23; experiment: In vitro total growth inhibition against non-small-cell lung cancer NCI-H23 cell lines was reported.; type: functional; settings: Homo sapiens, read-out: Log TGI (converted)
[28] = system: NCI-H322M; experiment: Log of molar concentration leading to 50% cell death against non-small-cell lung cancer NCI-H322M cell line was reported; type: functional; settings: Homo sapiens, read-out: Log LC50 (the source's name) (converted)
[29] = system: OVCAR-5; experiment: In vitro growth inhibition against ovarian cancer OVCAR-5 cell line was reported.; type: functional; settings: Homo sapiens
[30] = system: SK-OV-3; experiment: In vitro growth inhibition against ovarian cancer SK-OV-3 cell line was reported.; type: functional; settings: Homo sapiens
[31] = system: DU-145; experiment: In vitro total growth inhibition against prostate cancer […] cell lines was reported.; type: functional; settings: Homo sapiens, read-out: Log TGI (converted)
[32] = system: ACHN; experiment: In vitro total growth inhibition against renal cancer ACHN cell lines was reported.; type: functional; settings: Homo sapiens, read-out: Log TGI (converted)
[33] = system: CAKI-1; experiment: In vitro growth inhibition against renal cancer CAKI-1 cell line was reported.; type: functional; settings: Homo sapiens
[34] = system: RXF 393; experiment: In vitro growth inhibition against renal cancer RXF 393 cell line was reported.; type: functional; settings: Homo sapiens
[35] = system: 786-0; experiment: In vitro total growth inhibition against renal cancer […] cell lines was reported.; type: functional; settings: Homo sapiens, read-out: Log TGI (converted)
[36] = system: SN12C; experiment: In vitro growth inhibition against renal cancer SN12C cell line was reported.; type: functional; settings: Homo sapiens
[37] = system: TK-10; experiment: In vitro total growth inhibition against renal cancer TK-10 cell lines was reported.; type: functional; settings: Homo sapiens, read-out: Log TGI (converted)
[38] = system: RPMI-8226; experiment: Log of molar concentration leading to 50% cell death against leukemia […] cell line was reported; type: functional; settings: Homo sapiens, read-out: Log LC50 (the source's name) (converted)
[39] = system: HL-60; experiment: Log of molar concentration leading to 50% cell death against leukemia HL-60(TB) cell line was reported; type: functional; settings: Homo sapiens, read-out: Log LC50 (the source's name) (converted)
[40] = system: OVCAR-3; experiment: Log of molar concentration leading to 50% cell death against ovarian cancer OVCAR-3 cell line was reported; type: functional; settings: Homo sapiens, read-out: Log LC50 (the source's name) (converted)
[41] = system: OVCAR-4; experiment: Log of molar concentration leading to 50% cell death against ovarian cancer OVCAR-4 cell line was reported; type: functional; settings: Homo sapiens, read-out: Log LC50 (the source's name) (converted)
[42] = system: MCF7; experiment: Log of molar concentration leading to 50% cell death against breast cancer MCF 7 cell line was reported; type: functional; settings: Homo sapiens, read-out: Log LC50 (the source's name) (converted)
[43] = system: MDA-MB-231; experiment: Log of molar concentration leading to 50% cell death against breast cancer MDA-MB-231/ATCC cell line was reported; type: functional; settings: Homo sapiens, read-out: Log LC50 (the source's name) (converted)
[44] = system: M14; experiment: Log of molar concentration leading to 50% cell death against melanoma M14 cell line was reported; type: functional; settings: Homo sapiens, read-out: Log LC50 (the source's name) (converted)
[45] = system: M14; experiment: In vitro total growth inhibition against melanoma M14 cell lines was reported.; type: functional; settings: Homo sapiens, read-out: Log TGI (converted)
[46] = system: SK-MEL-5; experiment: Log of molar concentration leading to 50% cell death against melanoma SK-MEL-5 cell line was reported; type: functional; settings: Homo sapiens, read-out: Log LC50 (the source's name) (converted)
[47] = system: UACC-257; experiment: Log of molar concentration leading to 50% cell death against melanoma UACC-257 cell line was reported; type: functional; settings: Homo sapiens, read-out: Log LC50 (the source's name) (converted)
[48] = system: HOP-62; experiment: In vitro growth inhibition against non-small-cell lung cancer HOP-62 cell line was reported.; type: functional; settings: Homo sapiens
[49] = system: NCI-H522; experiment: In vitro growth inhibition against non-small-cell lung cancer […] cell line was reported.; type: functional; settings: Homo sapiens
[50] = system: NCI-H226; experiment: In vitro growth inhibition against non-small-cell lung cancer NCI-H226 cell line was reported.; type: functional; settings: Homo sapiens
[51] = system: NCI-H23; experiment: In vitro growth inhibition against non-small-cell lung cancer NCI-H23 cell line was reported.; type: functional; settings: Homo sapiens
[52] = system: OVCAR-3; experiment: In vitro growth inhibition against ovarian cancer OVCAR-3 cell line was reported.; type: functional; settings: Homo sapiens
[53] = system: IGROV-1; experiment: In vitro growth inhibition against ovarian cancer IGROV1 cell line was reported.; type: functional; settings: Homo sapiens
[54] = system: PC-3; experiment: In vitro growth inhibition against prostate cancer PC-3 cell line was reported.; type: functional; settings: Homo sapiens
[55] = system: ACHN; experiment: In vitro growth inhibition against renal cancer ACHN cell line was reported.; type: functional; settings: Homo sapiens
[56] = system: LOX IMVI; experiment: In vitro growth inhibition against melanoma LOX IMVI cell line was reported.; type: functional; settings: Homo sapiens
[57] = system: HT-29; experiment: In vitro growth inhibition against colon cancer HT-29 cell line was reported.; type: functional; settings: Homo sapiens
[58] = system: OVCAR-8; experiment: Log of molar concentration leading to 50% cell death against ovarian cancer OVCAR-8 cell line was reported; type: functional; settings: Homo sapiens, read-out: Log LC50 (the source's name) (converted)
[59] = system: MDA-MB-435; experiment: In vitro total growth inhibition against breast cancer MDA-MB-435 cell lines was reported.; settings: Homo sapiens, read-out: Log TGI (converted)

O=C(Nc1cccc2nsnc12)c1cc2c(cc1Cl)Sc1nccn1S2(=O)=O was tested, and the TGI [1] was 5.75 µM, the GI50 [2] was 6.03 µM and the GI50 [3] was 17.8 µM. For the same molecule, the GI50 [4] was 1.7 µM, the CC50 [5] was 56.2 µM and the TGI [6] was 30.9 µM. The GI50 [7] was 3.39 µM, the TGI [8] was 11.7 µM and the CC50 [9] was 12.9 µM. The TGI [10] was 5.37 µM, the GI50 [11] was 11.2 µM and the CC50 [12] was 15.5 µM. The TGI [13] was 4.9 µM, the GI50 [14] was 4.57 µM and the TGI [15] was 15.8 µM. The CC50 [16] was 95.5 µM, the GI50 [17] was 4.07 µM and the TGI [18] was 20 µM. The TGI [19] was 4.07 µM, the GI50 [20] was 2.75 µM and the GI50 [21] was 17.4 µM. The GI50 [22] was 66.1 µM, the GI50 [23] was 5.37 µM and the CC50 [24] was 9.77 µM. The CC50 [25] was 8.71 µM, the TGI [26] was 3.8 µM and the TGI [27] was 25.1 µM. For the same molecule, the CC50 [28] was 5.75 µM, the GI50 [29] was 29.5 µM and the GI50 [30] was 45.7 µM. It also gave a TGI [31] of 3.24 µM, a TGI [32] of 36.3 µM and a GI50 [33] of 4.79 µM. It also gave a GI50 [34] of 4.68 µM, a TGI [35] of 30.2 µM and a GI50 [36] of 15.1 µM. It also gave a TGI [37] of 22.9 µM, a CC50 [38] of 7.94 µM and a CC50 [39] of 7.41 µM. The CC50 [40] was 6.61 µM, the CC50 [41] was 87.1 µM and the CC50 [42] was 6.61 µM. It also gave a CC50 [43] of 53.7 µM, a CC50 [44] of 69.2 µM and a TGI [45] of 46.8 µM. For the same molecule, the CC50 [46] was 72.4 µM, the CC50 [47] was 6.31 µM and the GI50 [48] was 1.66 µM. It also gave a GI50 [49] of 5.37 µM, a GI50 [50] of 19.1 µM and a GI50 [51] of 11.7 µM. It also gave a GI50 [52] of 1.78 µM, a GI50 [53] of 5.5 µM and a GI50 [54] of 1.91 µM. The GI50 [55] was 12.6 µM, the GI50 [56] was 5.25 µM and the GI50 [57] was 2.24 µM. It also gave a CC50 [58] of 38 µM and a TGI [59] of 49 µM.
